# Patent US11524055B2, “Methods for treating diseases mediated by ERBB4-positive pro-inflammatory macrophages” (Children's Hospital Los Angeles, priority 2015, dated 2022)
# System: M1-polarized Mø (classically activated BMDMs)
# Assay: Cell Titer Blue (resazurin-based) cell viability assay, classically activated (M1) BMDMs
# Design: species or system mouse
# Details: 1 h pre-treatment, then 100 ng/ml NRG4 and 100 ng/ml LPS
# Method: (FIG. 8A) Classically activated (M1) or alternatively activated (M2) BMDMs were treated with NRG4 (100 ng/ml) for 48 hours and analyzed by resazurin-based cell titer assay to assess cell numbers compared to control. (FIG. 8B) Classically activated BMDMs pre-incubated for 30 minutes with or without 2 μg/ml ErbB4 neutralizing antibody (E4BA), and treated with or without NRG4 (100 ng/ml) for 48 hours, were stained for cleaved caspase-3. […] (FIG. 8C) Classically activated BMDMs treated with NRG4 (100 ng/ml) for 48 hours were stained for annexin V and propidium iodide (PI), and analyzed by flow cytometry to determine apoptotic cells. n=3-6 independent experiments for each panel. Error bars represent SEM. *, p<0.05; **, p<0.01.
# (FIG. 9B) Classically activated BMDMs were pre-treated for 1 hour with metalloprotease inhibitor (GM6001, 10 γ-secretase inhibitor (DAPT, 10 or ADAM17 inhibitor (GW280264X, 3 μM) followed by 100 ng/ml NRG4 and 100 ng/ml LPS. Percent cell viability was analyzed by rezasurin-based cell titer assay. Error bars represent SEM. ***, p<0.001. (FIG. 9C) Immunofluorescence analysis of ErbB4 localization to the mitochondria of classically activated BMDMs treated with or without NRG4 (100 ng/ml) for 48 hours. Arrows point to representative cells with ErbB4/mitochondrial overlap. n=4 independent experiments.
# IFNγ/LPS-treated Mø were exposed to NRG4 (100 ng/ml)+/−ErbB4 blocking antibody (E4BA; 2 μg/ml) for 48 h and counted by Cell Titer Blue assay (Promega). n=4. *, p<0.01.
# For BMDMs, adherent cells were washed at 3 days and re-fed with M-CSF containing media until experimentation at day 7-8. For M1 polarization, cells were pre-treated with 100 U/ml IFNγ for 16 hours, then stimulated with 100 ng/ml LPS.
# BMDMs were plated in 96 well plates at 40,000 cells per well. Cells were washed and plated in DMEM with 10% heat-inactivated FBS, 100 U/ml penicillin and streptomycin, and given 100 U/ml IFNγ overnight. […] Relative cell numbers were determined by Cell Titer Blue (resazurin-based assay) following manufacturer's instructions (Promega, G8081). […]
Molecule,Effect on NRG4-induced cell death (percent cell viability) (inhibitor 10 μM),Effect on NRG4-induced cell death (percent cell viability) (inhibitor 3 μM)
C[C@H](NC(=O)Cc1cc(F)cc(F)c1)C(=O)N[C@H](C(=O)OC(C)(C)C)c1ccccc1 [DAPT],protected against the NRG4-induced cell death,–
CNC(=O)[C@H](Cc1c[nH]c2ccccc12)NC(=O)[C@@H](CC(=O)NO)CC(C)C [GM6001],protected against the NRG4-induced cell death,–
GW280264X,–,protected against the NRG4-induced cell death
